Reference: US20150331992A1, “CANCER PROGNOSIS AND THERAPY BASED ON SYNTHEIC LETHALITY” (Ramot at Tel-Aviv University Ltd., priority 2014, published 2015)

System: VHL-deficient and VHL-restored renal carcinoma cells (RCC4)
Assay: Growth inhibition of VHL-deficient vs VHL-restored renal cells by drugs at mid-effective concentration
Format: cell-based
Settings: mid-effective concentration of each drug; both cell lines in triplicates; FIG. 5
Method: A range of concentrations for each drug were tested to identify a suitable working concentration in which there was an effect on cells growth, but not complete death (which is more likely to be due to non-specific toxicity).

Row | SMILES | Sensitivity (percentage of growth inhibition) of VHL-deficient cells compared to isogenic cells in which pVHL was restored
1 | CN(C)CCC=C1c2ccccc2CCc2ccccc21 [Amitriptyline] | significantly more sensitive
2 | Nc1ccncc1 [Dalfampridine] | significantly more sensitive
3 | CN(C)CCCN1c2ccccc2CCc2ccccc21 [Imipramine] | significantly more sensitive
4 | C[N+]1(CCCCC[N+]2(C)CCCC2)CCCC1 [Pentolinium] | significantly more sensitive
5 | COc1ccc(CCN(C)CCCC(C#N)(c2ccc(OC)c(OC)c2)C(C)C)cc1OC (centres unmarked) [Verapamil] | significantly more sensitive
